Measurements published in patent US20180192641A1, “Compositions and Methods for Preservation of Materials in the Amorphous State” (University of North Carolina Charlotte, priority 2014, published 2018).
One block for each compound: values may come before it.

Key:
[1] = moisture sorption (dynamic vapor sorption) and visual onset of crystallization in microwave-dried amorphous trehalose/salt samples at 61% RH; type: physicochemical
Protocol: A stock solution of 30.8 wt % trehalose (1.3 M), made in 1×TE buffer (1×Tris-EDTA buffer, pH 8.0, consisting of 10 mM Tris-HCl and 1 mM EDTA), was used to prepare solutions with varying amounts of phosphate salts (salt to trehalose molar ratio (R) is 1:4.8, 1:2 and 1:0.7). […] The end moisture content was measured below 0.105 gH2O/gdw which is known to produce a glass transition temperature higher than room temperature in the case of aqueous trehalose solutions. […] Specifically, in order to investigate moisture sorption in different trehalose/salt compositions at the 61% relative humidity, a closed environment with a stable relative humidity over the test duration was prepared. Supersaturated salt solutions of sodium bromide (prepared by following ASTM Protocol E 104-02) are capable of producing an environment with constant relative humidity of 61%. […] glass jars with rubber seals and clamps or Mason glass jars with screw caps are used as controlled humidity vessels (1 L, total height 159 mm, mouth Dia. 89 mm). The dynamic vapor sorption (DVS) method was used to monitor moisture sorption in the microwave-processed trehalose samples before and after crystallization (crystals were detected visually in samples). The moisture uptake in trehalose/salt samples were monitored to evaluate the effect of salts on end moisture content at time zero after microwave processing at 11% RH. Moisture sorption trends in samples over the experiment duration while held in the preservation jars (61% RH) were also evaluated. In this study, the gravimetric method was used to determine the dry weight of samples with different compositions (expressed in terms of mass of water per mass of solids). […] (below the crystallization temperature of Trehalose). The sample was then cooled in a desiccator containing phosphorus pentoxide (P2O5) which maintained the humidity near 0% RH. By recording the initial wet mass and the bake-out dry mass, the dry weight of each composition was obtained.

[2] = 25° C.; cited from earlier work
[3] = 37.5% RH; cited from earlier work
[4] = remained constant in RH environment of up to 92%; cited from earlier work

SMILES: C[N+](C)(C)CCO.O=P([O-])(O)O [pure choline dihydrogen phosphate, choline dihydrogen phosphate]
- hygroscopicity (moisture uptake) ([1]; 61% RH): very hygroscopic
- crystallization observed ([1]; 61% RH, pure salt without trehalose): no crystallization

- water absorbed to enable the formation of trehalose dihydrate ([1]; 61% RH): around 0.105 gH2O/g trehalose
- moisture content level after crystallization ([1]; 61% RH, level the moisture content fell to after crystallization (pure trehalose: during the following 18 days)): around 0.105 gH2O/gdw
- time (day) of onset of sugar crystallization, observed visually ([1]; storage at 61% RH after microwave drying at 11% RH): 1 days
SMILES: OC[C@H]1O[C@H](O[C@H]2O[C@H](CO)[C@@H](O)[C@H](O)[C@H]2O)[C@H](O)[C@@H](O)[C@@H]1O [pure trehalose, trehalose]
- RH at which isotherm exhibited a plateau (formation of trehalose dihydrate crystals) [2]: ≥ 44 % RH
- crystals on DSC thermograms [3]: did not show any crystals

SMILES: OC[C@H]1O[C@H](O[C@H]2O[C@H](CO)[C@@H](O)[C@H](O)[C@H]2O)[C@H](O)[C@@H](O)[C@@H]1O [trehalose dihydrate]
- moisture content of trehalose dihydrate [4]: 9.54%
